Drawing on ChEMBL document CHEMBL1201862, “PubChem BioAssay data set” (2004), this text covers AC50, IC50 and AbsAC90 for seven compounds.

The source made the active and inactive calls.

In experiment [1] the target is NAD-dependent protein deacylase sirtuin-5, mitochondrial (Homo sapiens, UniProt Q9NXA8). Briefly: SIRT5 deacylase inhibitors, dose response, biochemical, fluorescence imaging, cherry-pick, set 6 (AID 720597).
Experiment [2] in a line: MALME3 melanoma cell viability reduction, dose response, orthogonal assay for MITF inhibitor project, CellTiter-Glo luminescence, dry powder, set 5 (AID 651584). It is filed as functional, cell-based. The following applies: MALME-3. (In general: ATP-based viability assays read luminescence as a measure of living cells.)
Experiment [3] can be described thus: A375 melanoma cell viability loss, dose response, counter-screen for MITF modulator project, CellTiter-Glo luminescence, dry powder, set 9 (AID 651591). The class given is functional, cell-based. The following applies: A-375.
Experiment [4] can be described thus: TRPM1 promoter luciferase reporter signal decrease, dose response, MITF inhibitor project, cell-based, SK-MEL-5, dry powder, set 9 (AID 651588). The class given is functional.
A short description of experiment [5]: TRPM1 promoter luciferase reporter signal decrease, dose response, MITF inhibitor project, cell-based, SK-MEL-5, dry powder, set 8 (AID 624430). The class given is functional.
Experiment [6] is described as follows: MITF Orthogonal Assay: MALME3 CTG Assay Measured in Cell-Based System Using Plate Reader - 2084-04_Inhibitor_Dose_DryPowder_Activity_Set6. The class given is functional. The following applies: MALME-3.
A short description of experiment [7]: MITF Orthogonal Assay: SK-MEL-5 CTG Assay Measured in Cell-Based System Using Plate Reader - 2084-02_Inhibitor_Dose_DryPowder_Activity_Set7. The class given is functional.
Experiment [8] in a line: SK-MEL-5 parental cell viability reduction, dose response, orthogonal assay for MITF inhibitor project, CellTiter-Glo luminescence, dry powder, set 8 (AID 651586). It is filed as functional, cell-based.
Experiment [9] is described as follows: MITF: Counter assay: A375 proliferation Measured in Cell-Based System Using Plate Reader - 2084-03_Inhibitor_Dose_DryPowder_Activity_Set8. It is filed as functional. The following applies: A-375.
Experiment [10] has as its target T1, Phospholipase D2 (Homo sapiens, UniProt O14939). The experiment is described as follows: Discovery of PLD2 inhibitors using the Purified Enzyme Concentration Response Assay. The class given is functional.
The target of experiment [11] is T1, Phospholipase D2. The experiment is described as follows: PLD2 Cellular Concentration Response Study. It is filed as functional.
The target of experiment [12] is Phospholipase D1 (Homo sapiens, UniProt Q13393). The experiment is described as follows: PLD1 Cellular Concentration Response Study. The class given is functional.
Experiment [13] in a line: TB: CFU replicating Measured in Microorganism System Using Imaging - 7108-05_Inhibitor_Dose_DryPowder_Activity_Set2. The class given is functional.
A short description of experiment [14]: P. falciparum 3D7-ScDHODH growth inhibitors, dose response, SYBR Green, dry powder samples (AID 1159570).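 Also: parasite growth measured after 72 hours of compound exposure.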 It is filed as functional, cell-based.
Experiment [15] in a line: P. falciparum Dd2 growth inhibitors, dose response, SYBR Green, dry powder samples (AID 1159566).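 Also: potency for growth inhibition with lower SYBR green DNA signal.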 The class given is functional, cell-based.
The nature of experiment [16]: P. falciparum Dd2 growth inhibitors, dose response, SYBR Green, cherry-picked samples (AID 1159567). It is filed as functional, cell-based.
A short description of experiment [17]: P. falciparum ATP4 D1247Y mutant growth inhibitors, dose response, NITD609-resistant line, SYBR Green, dry powder (AID 1159571).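 Also: parasites synchronized at ring stage by sorbitol before testing.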 It is filed as functional, cell-based.
Experiment [18] is described as follows: HepG2 cell cytotoxicity, dose response, cytotoxicity control, plate reader, dry powder samples (AID 1159569).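 Also: inhibitor potency with signal falling toward the positive control level.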 The class given is functional, cell-based.
The nature of experiment [19]: Plasmodium falciparum Dd2 Sybr green parasite growth Measured in Cell-Based and Microorganism Combination System Using Plate Reader - 2153-01_Inhibitor_Dose_DryPowder_Activity_Set3. The class given is functional.
The nature of experiment [20]: P. falciparum Dd2 blood-stage growth inhibition, dose response, SYBR Green fluorescence, erythrocytes, dry powder, set 2 (AID 1159574). The class given is functional, cell-based.
Experiment [21] is described as follows: CellTiter-Glo luminescent dose response of DLD-1 viability loss (AID 1117352). The class given is functional.
Experiment [22] in a line: cytotoxicity toward Colo320 cells – cell-based, CellTiter-Glo luminescence, IC50, dose response (AID 1117334). The class given is functional. The following applies: COLO 320.
Experiment [23] is described as follows: HeLa 2N DNA content increase, dose response, cell-based, IC50 (AID 1117349). The class given is functional.
A short description of experiment [24]: RKO cell viability reduction, dose response, CellTiter-Glo luminescence (AID 1117322). It is filed as functional.
A short description of experiment [25]: Concentration-dependent survival of SW480 colon cancer line, luminescence detection with CellTiter-Glo, half-maximal inhibitory concentration (AID 1117338). It is filed as functional.
A short description of experiment [26]: cytotoxicity toward HCT116 cells – cell-based, CellTiter-Glo luminescence, IC50, dose response (AID 1117332). The class given is functional. The following applies: HCT-116.
A short description of experiment [27]: HeLa 4N DNA content increase, dose response, cell-based, IC50 (AID 1117351). The class given is functional.
Experiment [28] can be described thus: cytotoxicity toward HT-29 cells – cell-based, CellTiter-Glo luminescence, IC50, dose response (AID 1117330). The class given is functional.
Experiment [29] can be described thus: HCT116 cell viability decrease, GSK3B pretreatment – CellTiter-Glo, IC50, dose response (AID 1117339). It is filed as functional. The following applies: HCT-116.
A short description of experiment [30]: SNU-C1 cell viability reduction, dose response, CellTiter-Glo luminescence (AID 1117323). It is filed as functional, cell-based.

T1 sequence (O14939 whole entry): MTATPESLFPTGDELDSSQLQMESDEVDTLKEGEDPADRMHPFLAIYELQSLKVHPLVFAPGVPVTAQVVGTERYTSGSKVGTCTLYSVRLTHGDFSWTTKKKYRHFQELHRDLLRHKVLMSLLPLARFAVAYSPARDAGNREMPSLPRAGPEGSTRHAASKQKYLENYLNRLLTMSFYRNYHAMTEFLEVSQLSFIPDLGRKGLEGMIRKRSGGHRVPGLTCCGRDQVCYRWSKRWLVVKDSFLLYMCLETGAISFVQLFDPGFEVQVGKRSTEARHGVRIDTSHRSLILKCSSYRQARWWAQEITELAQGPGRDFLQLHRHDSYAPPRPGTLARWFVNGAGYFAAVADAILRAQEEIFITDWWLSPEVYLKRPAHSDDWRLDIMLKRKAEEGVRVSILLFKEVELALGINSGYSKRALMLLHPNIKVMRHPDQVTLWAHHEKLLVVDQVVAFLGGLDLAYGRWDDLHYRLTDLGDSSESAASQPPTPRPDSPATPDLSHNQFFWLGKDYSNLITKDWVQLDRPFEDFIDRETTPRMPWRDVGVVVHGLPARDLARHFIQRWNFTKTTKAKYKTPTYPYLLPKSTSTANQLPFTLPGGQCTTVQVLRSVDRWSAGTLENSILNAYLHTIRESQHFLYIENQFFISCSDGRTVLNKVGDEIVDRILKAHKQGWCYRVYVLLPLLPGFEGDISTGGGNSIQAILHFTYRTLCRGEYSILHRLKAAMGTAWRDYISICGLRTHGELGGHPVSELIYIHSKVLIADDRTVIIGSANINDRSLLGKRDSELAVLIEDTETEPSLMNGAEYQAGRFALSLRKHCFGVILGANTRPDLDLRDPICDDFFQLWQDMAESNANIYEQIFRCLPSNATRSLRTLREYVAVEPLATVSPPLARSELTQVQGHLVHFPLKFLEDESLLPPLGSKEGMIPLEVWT
Sequence of Phospholipase D1 (Q13393 whole entry): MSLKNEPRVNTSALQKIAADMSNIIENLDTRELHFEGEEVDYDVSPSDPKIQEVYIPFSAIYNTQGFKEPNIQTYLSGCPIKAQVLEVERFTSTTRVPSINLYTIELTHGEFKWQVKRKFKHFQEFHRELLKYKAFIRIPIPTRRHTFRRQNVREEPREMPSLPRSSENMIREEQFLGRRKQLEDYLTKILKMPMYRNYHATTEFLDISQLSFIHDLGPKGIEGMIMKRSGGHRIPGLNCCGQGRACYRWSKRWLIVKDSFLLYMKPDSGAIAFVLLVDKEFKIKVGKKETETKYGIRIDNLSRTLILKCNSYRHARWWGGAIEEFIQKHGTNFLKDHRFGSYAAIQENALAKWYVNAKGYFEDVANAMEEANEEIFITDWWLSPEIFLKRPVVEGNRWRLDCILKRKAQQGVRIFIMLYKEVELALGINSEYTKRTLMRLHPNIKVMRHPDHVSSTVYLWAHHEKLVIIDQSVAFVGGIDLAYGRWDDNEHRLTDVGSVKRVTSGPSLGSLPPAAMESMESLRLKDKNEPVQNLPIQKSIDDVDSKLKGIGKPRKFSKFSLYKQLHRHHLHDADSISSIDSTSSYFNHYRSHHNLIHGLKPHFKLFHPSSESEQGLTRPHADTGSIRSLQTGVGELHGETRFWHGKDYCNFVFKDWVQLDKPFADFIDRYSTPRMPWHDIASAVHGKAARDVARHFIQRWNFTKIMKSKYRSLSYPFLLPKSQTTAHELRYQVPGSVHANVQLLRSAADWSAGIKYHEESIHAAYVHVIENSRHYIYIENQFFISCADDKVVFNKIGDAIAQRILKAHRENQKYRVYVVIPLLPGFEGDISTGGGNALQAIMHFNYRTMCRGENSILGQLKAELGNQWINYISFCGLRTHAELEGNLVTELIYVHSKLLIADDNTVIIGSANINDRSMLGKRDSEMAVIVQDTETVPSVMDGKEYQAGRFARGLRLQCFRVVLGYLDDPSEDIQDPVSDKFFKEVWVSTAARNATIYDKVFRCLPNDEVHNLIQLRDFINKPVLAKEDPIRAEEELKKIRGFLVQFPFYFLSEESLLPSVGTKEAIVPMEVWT
Sequence of NAD-dependent protein deacylase sirtuin-5, mitochondrial (Q9NXA8 whole entry): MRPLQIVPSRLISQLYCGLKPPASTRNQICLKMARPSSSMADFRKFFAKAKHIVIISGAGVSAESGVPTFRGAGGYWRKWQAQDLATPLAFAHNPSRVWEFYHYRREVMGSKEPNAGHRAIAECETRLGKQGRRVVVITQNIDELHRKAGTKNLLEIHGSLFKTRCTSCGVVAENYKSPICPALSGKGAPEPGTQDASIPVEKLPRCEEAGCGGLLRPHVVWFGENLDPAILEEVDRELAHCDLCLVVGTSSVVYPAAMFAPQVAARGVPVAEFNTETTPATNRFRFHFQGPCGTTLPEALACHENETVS

As for `CC(C)CC#Cc1ccc2c(c1)O[C@@H](CN(C)S(=O)(=O)c1cccc(F)c1)[C@H](C)CN([C@H](C)CO)S2(=O)=O`, the AC50 – broadly, the midpoint of the concentration-response curve, whichever way the signal moves – in [1] was 26.3 µM (active).
In the case of `O=C1C(Nc2ccc(Cl)cc2)=C(N2CCCC2)C(=O)c2ccccc21`, the concentration at half-maximal activity (AC50) was 39.2 µM (active) in [2]; 50.9 µM (active) in experiment [3]; 31.6 µM (active) in experiment [4]; 3.48 µM (active) in [5]; 39.2 µM (active) in [6]; 1.77 µM (active) in experiment [7]. In addition, the AC50 is > 70 µM (inactive) in [8] and 41.5 µM (active) in [9].
Take `O=C(NCCN1CCC2(CC1)C(=O)NCN2Cc1cccnc1)c1ccc2ccccc2c1`: the IC50 (in general, the concentration that inhibits the measured activity by half) is 8.7 µM (active) in experiment [10], 0.46 µM (active) in experiment [11] and 20 µM (active) in experiment [12].
In turn, `Cn1c(NC(=O)c2ccccc2)nc2ncccc21` showed an AbsAC90 in experiment [13] of 724.55 µM.
`COc1ccc(CN2C[C@@H](C)[C@H](OC)CN(C)C(=O)c3ccc(NC(=O)c4nc5ccccc5s4)cc3OC[C@H]2C)cc1`: the AC50 in [14] was 3.16 µM (active); in [15] it was 0.643 µM (active); in experiment [16] it was 0.854 µM (active); in experiment [17], 1.25 µM (active); in [18], > 92 µM (inactive); in experiment [19], 1.06 µM (active).
For the compound `COc1ccc(S(=O)(=O)N(C)C[C@H]2OCc3ccccc3-c3c(n(C)c4ccccc34)C(=O)N([C@@H](C)CO)C[C@@H]2C)cc1`, in experiment [20], the AC50 is 1.47 µM (active).
On to `O=C(O)CCc1nc2ccccc2[nH]1` [PROCODAZOLE], for which the IC50 is 2.42 µM (active) in experiment [21]; > 20 µM (inactive) in [22]; > 10 µM (inactive) in experiment [23]; > 20 µM (inactive) in experiment [24]; > 20 µM (inactive) in experiment [25]; > 20 µM (inactive) in experiment [26]. For the same compound, the IC50 in experiment [27] was > 10 µM (inactive); in experiment [28], > 20 µM (inactive); in experiment [29] it was 2.2 µM (active); in experiment [30], > 20 µM (inactive).
